In patent US20230257372A1 (CHONG KUN DANG PHARMACEUTICAL CORP., priority 2020, published 2023):
Like-named read-outs stand apart in the source and are kept apart here.

Assays:
[1] = molecular target: T1, human recombinant HDAC6 (Homo sapiens, UniProt Q9UBN7); experiment: HDAC6 enzyme activity inhibition (HDAC Fluorimetric Drug Discovery Kit); format: biochemical
T1 construct: purchased Calbiochem Inc. 382180
T1 sequence (Q9UBN7 1-1215): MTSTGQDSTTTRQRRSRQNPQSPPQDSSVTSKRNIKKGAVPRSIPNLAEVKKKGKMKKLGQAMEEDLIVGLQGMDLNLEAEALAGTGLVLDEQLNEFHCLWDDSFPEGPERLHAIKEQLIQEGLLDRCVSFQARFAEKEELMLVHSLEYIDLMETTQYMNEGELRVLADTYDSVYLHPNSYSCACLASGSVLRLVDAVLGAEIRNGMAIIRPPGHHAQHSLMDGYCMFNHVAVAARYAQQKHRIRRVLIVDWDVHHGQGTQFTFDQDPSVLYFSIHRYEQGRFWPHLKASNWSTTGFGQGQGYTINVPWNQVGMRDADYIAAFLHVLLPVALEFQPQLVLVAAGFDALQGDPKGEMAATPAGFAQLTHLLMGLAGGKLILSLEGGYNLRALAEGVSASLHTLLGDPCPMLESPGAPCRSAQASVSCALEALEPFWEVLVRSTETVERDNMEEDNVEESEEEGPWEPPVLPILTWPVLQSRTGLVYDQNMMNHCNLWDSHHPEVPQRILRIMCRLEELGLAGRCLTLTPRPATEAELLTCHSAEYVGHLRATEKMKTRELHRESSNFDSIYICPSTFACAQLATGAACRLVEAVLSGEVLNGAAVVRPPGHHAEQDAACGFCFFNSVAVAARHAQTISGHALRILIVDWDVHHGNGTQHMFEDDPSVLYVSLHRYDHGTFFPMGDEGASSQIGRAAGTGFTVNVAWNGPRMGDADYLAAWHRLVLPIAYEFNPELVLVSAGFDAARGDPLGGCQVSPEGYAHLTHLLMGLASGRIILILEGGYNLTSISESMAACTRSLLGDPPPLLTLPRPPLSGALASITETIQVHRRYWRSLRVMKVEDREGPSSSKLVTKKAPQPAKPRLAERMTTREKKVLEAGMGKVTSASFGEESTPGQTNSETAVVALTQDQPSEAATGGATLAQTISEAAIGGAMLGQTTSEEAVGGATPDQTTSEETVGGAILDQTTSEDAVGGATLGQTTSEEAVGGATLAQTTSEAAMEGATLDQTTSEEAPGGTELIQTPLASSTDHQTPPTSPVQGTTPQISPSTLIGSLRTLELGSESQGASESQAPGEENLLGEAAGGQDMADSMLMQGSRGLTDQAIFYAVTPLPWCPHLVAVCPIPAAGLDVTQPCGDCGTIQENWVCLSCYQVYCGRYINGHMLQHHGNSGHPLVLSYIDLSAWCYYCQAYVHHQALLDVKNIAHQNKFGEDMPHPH
Method in brief: (§1)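 Five-fold compound dilutions incubated with […] recombinant enzyme and 10 μM fluorogenic Fluor de Lys substrate, 60 min at 30° C. Fluor de Lys Developer II then added for 30 min to generate the fluorescent read-out.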

[2] = test system: hippocampal neurons from a Sprague-Dawley (SD) rat fetus; experiment: Effect of HDAC6-specific inhibitor on axonal transport of mitochondria in amyloid-beta treated neurons; format: cell-based; details: transport velocity of mitochondria in neuronal axon after normalization; vehicle = 100%, amyloid beta treatment group = 0%; compound treatment for three hours
Method in brief: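 Rat E17-18 hippocampal neurons exposed to amyloid-beta fragments […]; after 24 h (day 8 in vitro) compound added for 3 h, mitochondria stained with MitoTracker Red CMXRos. Confocal imaging every 1 s for 1 min gave per-mitochondrion velocity, normalized vehicle = 100%, amyloid-beta = 0%.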

[3] = molecular target: T2, human recombinant HDAC1 (Homo sapiens, UniProt Q13547); experiment: HDAC1 enzyme activity inhibition (HDAC Fluorimetric Drug Discovery Kit); format: biochemical; details: read-out: HDAC1
T2 construct: purchased Enzo Life Science, Inc. BML-SE456
Method in brief: as §1

[4] = human recombinant HDAC6, IC50 calculated with GraphPad Prism
[5] = human recombinant HDAC1, IC50 calculated with GraphPad Prism
[6] = human recombinant HDAC6, same protocol as HDAC1
[7] = human recombinant HDAC1, Fluor de Lys substrate, 30° C. 60 minutes

T2 sequence (Q13547 whole entry): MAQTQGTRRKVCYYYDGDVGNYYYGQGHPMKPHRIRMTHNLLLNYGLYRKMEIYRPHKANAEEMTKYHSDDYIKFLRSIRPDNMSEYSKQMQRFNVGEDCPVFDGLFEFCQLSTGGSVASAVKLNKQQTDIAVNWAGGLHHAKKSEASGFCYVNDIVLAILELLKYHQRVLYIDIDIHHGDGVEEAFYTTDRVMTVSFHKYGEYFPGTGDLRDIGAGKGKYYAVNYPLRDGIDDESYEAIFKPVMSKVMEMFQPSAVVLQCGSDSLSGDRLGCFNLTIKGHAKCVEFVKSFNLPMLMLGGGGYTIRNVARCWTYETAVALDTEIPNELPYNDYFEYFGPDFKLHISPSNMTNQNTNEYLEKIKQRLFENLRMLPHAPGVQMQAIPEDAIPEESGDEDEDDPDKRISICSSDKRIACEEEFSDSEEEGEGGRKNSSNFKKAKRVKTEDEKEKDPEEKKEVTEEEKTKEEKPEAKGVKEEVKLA

Row | HDAC6 selectivity (fold) ([1]; HDAC1 IC50 / HDAC6 IC50) | IC50 [1, 4] | IC50 [3, 5] | HDAC6 selectivity (fold) ([1]; HDAC6 over HDAC1) | IC50 [1, 6] | IC50 [3, 7] | SMILES | Velocity distribution (%) [2]
1 | 4587 fold | 10.9 nM | > 50000 nM |  |  |  | CC1CCN(Cc2c[nH]c3cc(-c4cn(Cc5ccc(-c6nnc(C(F)F)o6)cn5)nn4)ccc23)CC1 [Compound 4111, 2-(difluoromethyl)-5-(6-((4-(3-((4-methylpiperidin-1-yl)methyl)-1H-indol-6-yl)-1H-1,2,3-triazol-1-yl)methyl)pyridin-3-yl)-1,3,4-oxadiazole] | ** (**, 50%˜100%)
2 | 1222 fold | 40.9 nM | > 50000 nM |  |  |  | FC(F)c1nnc(-c2ccc(Cn3cc(-c4ccc5cn[nH]c5c4)nn3)cc2)o1 [Compound 4341, 2-(4-((4-(1H-indazol-6-yl)-1H-1,2,3-triazol-1-yl)methyl)phenyl)-5-(difluoromethyl)-1,3,4-oxadiazole] | ** (**, 50%˜100%)
3 |  |  |  | 770 fold | 64.9 nM | > 50000 nM | CN(C)Cc1ccc(-c2cn(Cc3ncc(-c4nnc(C(F)F)o4)cc3F)nn2)cc1 [Compound 18308, 1-(4-(1-((5-(5-(difluoromethyl)-1,3,4-oxadiazol-2-yl)-3-fluoropyridin-2-yl)methyl)-1H-1,2,3-triazol-4-yl)phenyl)-N,N-dimethylmethanamine] | *** (***, >100%)
4 | 2252 fold | 22.2 nM | > 50000 nM |  |  |  | FC(F)c1nnc(-c2ccc(Cn3cc(-c4cncc(Br)c4)nn3)nc2)o1 [Compound 4182, 2-(6-((4-(5-bromopyridin-3-yl)-1H-1,2,3-triazol-1-yl)methyl)pyridin-3-yl)-5-(difluoromethyl)-1,3,4-oxadiazole] | ** (**, 50%˜100%)
5 |  |  |  | 1184 fold | 42.2 nM | > 50000 nM | Fc1cc(-c2nnc(C(F)F)o2)cnc1Cn1cc(-c2ccc(CN3CCC3)cc2)nn1 [Compound 18306, 2-(6-((4-(4-(azetidin-1l-ylmethyl)phenyl)-1H-1,2,3-triazol-1-yl)methyl)-5-fluoropyridin-3-yl)-5-(difluoromethyl)-1,3,4-oxadiazole] | *** (***, >100%)
6 | 6756 fold | 7.4 nM | > 50000 nM |  |  |  | CN1CCN(Cc2c[nH]c3cc(-c4cn(Cc5ccc(-c6nnc(C(F)F)o6)cn5)nn4)ccc23)CC1 [Compound 3986, 2-(difluoromethyl)-5-(6-((4-(3-((4-methylpiperazin-1-yl)methyl)-1H-indol-6-yl)-1H-1,2,3-triazol-1-yl)methyl)pyridin-3-yl)-1,3,4-oxadiazole] | *** (***, >100%)
7 | 729 fold | 68.5 nM | > 50000 nM |  |  |  | Fc1cc(-c2cn(Cc3ccc(-c4nnc(C(F)F)o4)cn3)nn2)ccn1 [Compound 4185, 2-(difluoromethyl)-5-(6-((4-(2-fluoropyridin-4-yl)-1H-1,2,3-triazol-1-yl)methyl)pyridin-3-yl)-1,3,4-oxadiazole] | *** (***, >100%)
8 | 4132 fold | 12.1 nM | > 50000 nM |  |  |  | CCOC(=O)Nc1cccc(-c2cn(Cc3ccc(-c4nnc(C(F)F)o4)cn3)nn2)c1 [Compound 3826] | * (*, 0%˜50%)
9 | 2092 fold | 23.9 nM | > 50000 nM |  |  |  | CN1CCN(c2cccc(-c3cn(Cc4ccc(-c5nnc(C(F)F)o5)cc4F)nn3)c2)CC1 [Compound 4337, 2-(difluoromethyl)-5-(3-fluoro-4-((4-(3-(4-methylpiperazin-1-yl)phenyl)-1H-1,2,3-triazol-1-yl)methyl)phenyl)-1,3,4-oxadiazole] | *** (***, >100%)
10 | 1196 fold | 41.8 nM | > 50000 nM |  |  |  | FC(F)c1nnc(-c2ccc(Cn3cc(-c4cccc(NC5CCCCC5)c4)nn3)nc2)o1 [Compound 3828, N-cyclohexyl-3-(1-((5-(5-(difluoromethyl)-1,3,4-oxadiazol-2-yl)pyridin-2-yl)methyl)-1H-1,2,3-triazol-4-yl)aniline] | * (*, 0%˜50%)

More lines, now with the values behind:

Row | SMILES | HDAC6 selectivity (fold) ([1]; HDAC1 IC50 / HDAC6 IC50) | IC50 [1, 4] | IC50 [3, 5] | HDAC6 selectivity (fold) ([1]; HDAC6 over HDAC1) | IC50 [1, 6] | IC50 [3, 7] | Velocity distribution (%) [2]
11 | Cc1cc2ccc(-c3cn(Cc4ccc(-c5nnc(C(F)F)o5)cn4)nn3)cc2[nH]1 [Compound 4287, 2-(difluoromethyl)-5-(6-((4-(2-methyl-1H-indol-6-yl)-1H-1,2,3-triazol-1-yl)methyl)pyridin-3-yl)-1,3,4-oxadiazole] | 2092 fold | 23.9 nM | > 50000 nM |  |  |  | *** (***, >100%)
12 | Cn1ncc2c(-c3cn(Cc4ccc(-c5nnc(C(F)F)o5)cn4)nn3)cccc21 [Compound 3842, 2-(difluoromethyl)-5-(6-((4-(1-methyl-1H-indazol-4-yl)-1H-1,2,3-triazol-1-yl)methyl)pyridin-3-yl)-1,3,4-oxadiazole] | 2032 fold | 24.6 nM | > 50000 nM |  |  |  | ** (**, 50%˜100%)
13 | Cc1cccc(-c2cn(Cc3ccc(-c4nnc(C(F)F)o4)cn3)nn2)c1 [Compound 3856, 2-(difluoromethyl)-5-(6-((4-(m-tolyl)-1H-1,2,3-triazol-1-yl)methyl)pyridin-3-yl)-1,3,4-oxadiazole] | 1506 fold | 33.2 nM | > 50000 nM |  |  |  | *** (***, >100%)
14 | Fc1cc(-c2nnc(C(F)F)o2)ccc1Cn1cc(-c2ccc3c(c2)CCN(C2CCC2)C3)nn1 [Compound 4361, 2-(4-((4-(2-cyclobutyl-1,2,3,4-tetrahydroisoquinolin-6-yl)-1H-1,2,3-triazol-1-yl)methyl)-3-fluorophenyl)-5-(difluoromethyl)-1,3,4-oxadiazole] | 668 fold | 74.8 nM | > 50000 nM |  |  |  | ** (**, 50%˜100%)
15 | CN1CCN(c2ccc(-c3cn(Cc4ccc(-c5nnc(C(F)F)o5)cn4)nn3)cc2)CC1 [Compound 4107, 2-(difluoromethyl)-5-(6-((4-(4-(4-methylpiperazin-1-yl)phenyl)-1H-1,2,3-triazol-1-yl)methyl)pyridin-3-yl)-1,3,4-oxadiazole] | 1256 fold | 39.8 nM | > 50000 nM |  |  |  | ** (**, 50%˜100%)
16 | FC(F)c1nnc(-c2ccc(Cn3cc(-c4cccc(N5CCN(C6COC6)CC5)c4)nn3)cc2)o1 [Compound 4370, 2-(difluoromethyl)-5-(4-((4-(3-(4-(oxetan-3-yl)piperazin-1-yl)phenyl)-1H-1,2,3-triazol-1-yl)methyl)phenyl)-1,3,4-oxadiazole] | 715 fold | 69.9 nM | > 50000 nM |  |  |  | *** (***, >100%)
17 | Fc1cc(-c2nnc(C(F)F)o2)cnc1Cn1cc(-c2ccccn2)nn1 [Compound 17983, 2-(difluoromethyl)-5-(5-fluoro-6-((4-(pyridin-2-yl)-1H-1,2,3-triazol-1-yl)methyl)pyridin-3-yl)-1,3,4-oxadiazole] |  |  |  | 633 fold | 78.9 nM | > 50000 nM | *** (***, >100%)
18 | FC(F)c1nnc(-c2ccc(Cn3cc(-c4ccc5[nH]ccc5c4)nn3)cc2)o1 [Compound 4080, 2-(4-((4-(1H-indol-5-yl)-1H-1,2,3-triazol-1-yl)methyl)phenyl)-5-(difluoromethyl)-1,3,4-oxadiazole] | 2145 fold | 23.3 nM | > 50000 nM |  |  |  | *** (***, >100%)
